Laboratory results published in the NIST ThermoML archive (doi:10.1021/je0501890).
Numbers after ± are expanded uncertainties.

Test: xn = mol fraction of the nth substance listed
Settings: 101.33 kPa, Liquid

ClC=C(Cl)Cl [trichloroethene] + CCCCCCCO
Settings	mass density, 293.15 K [kg/m3]	mass density, 298.15 K [kg/m3]	mass density, 303.15 K [kg/m3]	viscosity, 293.15 K [mPa·s]	viscosity, 298.15 K [mPa·s]	viscosity, 303.15 K [mPa·s]
x2 = 0.0507	1412.78 ± 1.2	1404.82 ± 1.2	1396.73 ± 1.2	–	–	–
x2 = 0.0927	–	–	–	0.671 ± 0.01	0.635 ± 0.009	0.6 ± 0.009
x2 = 0.0992	1367.53 ± 1.1	1359.9 ± 1.1	1352.18 ± 1.1	–	–	–
x2 = 0.1569	1317.05 ± 1.1	1309.82 ± 1	1302.52 ± 1	–	–	–
x2 = 0.201	–	–	–	0.883 ± 0.012	0.826 ± 0.012	0.763 ± 0.011
x2 = 0.2026	1279.18 ± 0.99	1272.23 ± 0.97	1265.25 ± 0.96	–	–	–
x2 = 0.2558	1237.46 ± 0.92	1230.87 ± 0.91	1224.15 ± 0.89	–	–	–
x2 = 0.256	–	–	–	1.017 ± 0.014	0.949 ± 0.013	0.875 ± 0.012
x2 = 0.304	–	–	–	1.158 ± 0.016	1.073 ± 0.015	0.989 ± 0.014
x2 = 0.3109	1196.47 ± 0.85	1190.18 ± 0.84	1183.85 ± 0.83	–	–	–
x2 = 0.3618	1160.63 ± 0.8	1154.67 ± 0.79	1148.63 ± 0.78	–	–	–
x2 = 0.3997	1134.97 ± 0.77	1129.21 ± 0.76	1123.37 ± 0.75	–	–	–
x2 = 0.4057	–	–	–	1.535 ± 0.021	1.397 ± 0.019	1.28 ± 0.017
x2 = 0.43	1115.18 ± 0.74	1109.55 ± 0.73	1103.85 ± 0.72	–	–	–
x2 = 0.5098	–	–	–	2.05 ± 0.027	1.838 ± 0.025	1.662 ± 0.022
x2 = 0.51	1065.33 ± 0.68	1060.09 ± 0.68	1054.79 ± 0.67	–	–	–
x2 = 0.5508	–	–	–	2.307 ± 0.031	2.046 ± 0.027	1.839 ± 0.025
x2 = 0.5514	1040.91 ± 0.64	1035.82 ± 0.63	1030.7 ± 0.62	–	–	–
x2 = 0.6022	–	–	–	2.648 ± 0.036	2.342 ± 0.031	2.082 ± 0.028
x2 = 0.6149	1005.06 ± 0.58	1000.28 ± 0.57	995.43 ± 0.57	–	–	–
x2 = 0.6574	982.15 ± 0.56	977.54 ± 0.57	972.87 ± 0.57	–	–	–
x2 = 0.7071	956.39 ± 0.56	951.95 ± 0.57	947.47 ± 0.57	–	–	–
x2 = 0.7077	–	–	–	3.52 ± 0.048	3.065 ± 0.041	2.672 ± 0.036
x2 = 0.7571	931.38 ± 0.57	927.1 ± 0.57	922.8 ± 0.58	–	–	–
x2 = 0.8016	909.97 ± 0.58	905.84 ± 0.58	901.69 ± 0.59	–	–	–
x2 = 0.802	–	–	–	4.51 ± 0.061	3.865 ± 0.052	3.333 ± 0.045
x2 = 0.8699	–	–	–	5.313 ± 0.07	4.537 ± 0.061	3.89 ± 0.053
x2 = 0.8728	877.14 ± 0.61	873.27 ± 0.61	869.35 ± 0.61	–	–	–
x2 = 0.893	–	–	–	5.624 ± 0.073	4.804 ± 0.065	4.112 ± 0.057
x2 = 0.9405	847.47 ± 0.64	843.79 ± 0.64	840.09 ± 0.64	–	–	–
